In US20180057505A1, “BICYCLIC HETEROARYL COMPOUNDS USEFUL AS INHIBITORS OF THE PAR-2 SIGNALING PATHWAY” (VERTEX PHARMACEUTICALS INCORPORATED, priority 2015, published 2018) one finds IC50 and inhibition data, which are given here for 26 compounds.

Holding throughout (assay type): cell-based
Assay [1] relates to UTP-stimulated Ca2+ response in HT-29 cells. In words: Ca FLIPR TETRA assay, ANTAGONIST mode, activator 0.6 μM UTP. The following applies: Homo sapiens; for IC50: HT-29 cells, activator 0.6 μM UTP; for inhibition at 50 µM: HT-29. The method, boiled down: (§1)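 Ca2+ flux by FLIPR Tetra in HT-29 cells after 30 min r.t. compound preincubation, followed by stimulation with SLIGKV 8 μM, thrombin 1 U/mL, trypsin 3.1 U/mL or UTP 0.6 μM (final). Cells were dye-loaded with calcium 5 beforehand; compound-only responses were also read.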

Assay [2] has as its target T1, PAR2 (HT-29 cells) (Homo sapiens, UniProt P55085).
T1 construct: host or cells: HT-29
T1 sequence (P55085 26-397): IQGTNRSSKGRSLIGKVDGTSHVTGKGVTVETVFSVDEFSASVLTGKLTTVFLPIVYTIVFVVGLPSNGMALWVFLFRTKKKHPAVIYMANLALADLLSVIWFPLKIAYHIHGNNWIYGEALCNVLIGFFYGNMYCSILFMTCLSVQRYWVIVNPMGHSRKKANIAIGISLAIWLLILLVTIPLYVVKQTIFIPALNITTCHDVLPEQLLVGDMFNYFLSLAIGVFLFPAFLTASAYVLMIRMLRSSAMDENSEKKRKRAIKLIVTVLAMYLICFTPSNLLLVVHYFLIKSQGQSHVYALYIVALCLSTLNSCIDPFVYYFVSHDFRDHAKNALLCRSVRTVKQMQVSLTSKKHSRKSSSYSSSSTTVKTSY
In words: Ca FLIPR TETRA assay, ANTAGONIST mode, activator 8 μM SLIGKV. The following applies: HT-29 cells, activator 8 μM SLIGKV; maximal antagonist concentration per Method (A: 0.1, 1 or 2 μM; B: 50 μM). Summed up:
as §1

The target in assay [3] is T1, PAR2 (HT-29 cells). Description: Ca FLIPR TETRA assay, ANTAGONIST mode, activator 3.1 U/mL trypsin. Conditions: HT-29 cells, activator 3.1 U/mL trypsin; maximal antagonist concentration per Method (A: 0.1, 1 or 2 μM; B: 50 μM). The method, boiled down: as §1
Assay [4] deals with Thrombin-stimulated Ca2+ response in HT-29 cells. Description: Ca FLIPR TETRA assay, ANTAGONIST mode, activator 1 U/mL Thrombin. Conditions: Homo sapiens; HT-29 cells, activator 1 U/mL Thrombin. The method, boiled down:
as §1

As usually defined, the IC50 is the point on the concentration scale where inhibition reaches its midpoint. For the compound `CC(C)c1cc(-c2ccc(F)cc2)nc2cc(C(=O)N3CCN(C(=O)C4(O)CCOCC4)CC3)oc12` [Example I-95], the IC50 in assay [1] was 14 µM; at PAR2 (HT-29 cells) [2] it was 10 µM; on PAR2 (HT-29 cells) [3], 8.9 µM; in assay [4] it was 15 µM.
Regarding `CC(C)c1cc(-c2ccc(F)cc2)nc2cc(C(=O)N3CCN(C(=O)C(C)(C)O)CC3)oc12` [Example I-96], the IC50 is 14 µM in assay [1], 13 µM at PAR2 (HT-29 cells) [2], 12 µM at PAR2 (HT-29 cells) [3] and 17 µM in assay [4].
Taken in the same sequence, the figures for `CC(C)c1cc(-c2ccc(F)cc2)nc2cc(C(=O)N3CCN(C(=O)C4(O)CCC4)C[C@H]3C)oc12` [Example I-97] were 15 µM, 4.1 µM, 5.1 µM and 18 µM.
In the case of `CC(C)c1cc(-c2ccc(F)cc2)nc2cc(C(=O)N3CCN(C(=O)[C@@H](C)O)C[C@H]3C)oc12` [Example I-98], the IC50 is 20 µM in assay [1], 5.3 µM at PAR2 (HT-29 cells) [2], 7 µM at PAR2 (HT-29 cells) [3] and 18 µM in assay [4].
Broadly, the inhibition is the percentage by which the read-out fell short of the control. Take `CC(C)c1cc(-c2ccc(F)cc2)nc2cc(C(=O)N3CCN(C(=O)[C@H](O)CC(C)(C)C)C[C@H]3C)oc12` [Example I-99]: the inhibition at 50 µM in assay [1] worked out at 63%. For the same compound, the IC50 at PAR2 (HT-29 cells) [2] is 0.062 µM; at PAR2 (HT-29 cells) [3] it was 0.43 µM; in assay [4] it was 3.9 µM.
As to `CC(C)c1cc(-c2ccc(F)cc2)nc2cc(C(=O)N3CCN(C(=O)C4(O)CCOCC4)C[C@H]3C)oc12` [Example I-100], the concentration for half-maximal inhibition (IC50) is 13 µM in assay [1], 9.1 µM at PAR2 (HT-29 cells) [2], 11 µM at PAR2 (HT-29 cells) [3] and 16 µM in assay [4].
Take `CC(C)c1cc(-c2ccc(F)cc2)nc2cc(C(=O)N3CCN(C(=O)C(C)(C)O)C[C@H]3C)oc12` [Example I-101]: the half-inhibitory concentration (IC50) was determined as 13 µM in assay [1], 7.6 µM at PAR2 (HT-29 cells) [2], 9.1 µM on PAR2 (HT-29 cells) [3] and 18 µM in assay [4].
Taken in the same sequence, the figures for `CC(C)c1cc(-c2ccc(F)cc2)nc2cc(C(=O)N3CCN(C(=O)C4(O)CCC4)C[C@@H]3C)oc12` [Example I-102] were 5.4 µM, 4.7 µM, 5.2 µM and 16 µM.
For the compound `CC(C)c1cc(-c2ccc(F)cc2)nc2cc(C(=O)N3CCN(C(=O)[C@@H](C)O)C[C@@H]3C)oc12` [Example I-103], the half-inhibitory concentration (IC50) in assay [1] stood at 24 µM; on PAR2 (HT-29 cells) [2] it was 7.9 µM; at PAR2 (HT-29 cells) [3], 8.5 µM; in assay [4], 29 µM.
For `CC(C)c1cc(-c2ccc(F)cc2)nc2cc(C(=O)N3CCN(C(=O)[C@H](O)CC(C)(C)C)C[C@@H]3C)oc12` [Example I-104], in assay [1], the inhibition at 50 µM was found to be 64%. For the same compound, the concentration for half-maximal inhibition (IC50) at PAR2 (HT-29 cells) [2] was determined as 0.73 µM; at PAR2 (HT-29 cells) [3] it was 0.83 µM; in assay [4] it was 2.6 µM.
In the case of `CC(C)c1cc(-c2ccc(F)cc2)nc2cc(C(=O)N3CCN(C(=O)C4(O)CCOCC4)C[C@@H]3C)oc12` [Example I-105], the IC50 in assay [1] is 15 µM; at PAR2 (HT-29 cells) [2], 8.7 µM; on PAR2 (HT-29 cells) [3] it was 7.7 µM; in assay [4] it was 12 µM.
Taken in the same sequence, the figures for `CC(C)c1cc(-c2ccc(F)cc2)nc2cc(C(=O)N3CCN(C(=O)C(C)(C)O)C[C@@H]3C)oc12` [Example I-106] were 14 µM, 7.8 µM, 7.7 µM and 15 µM.
`CCCS(=O)(=O)N1CCN(C(=O)c2cc3nc(-c4ccc(F)cc4)cc(C4(C)CC4)c3o2)C(C)(C)C1` [Example I-107]: the half-maximal inhibitory concentration (IC50) in assay [1] is over 50 µM; on PAR2 (HT-29 cells) [2] it was 0.034 µM; on PAR2 (HT-29 cells) [3], 0.028 µM; in assay [4], over 50 µM.
For `CCOC(=O)N1CCN(C(=O)c2cc3nc(-c4ccc(F)cc4)cc(C4(C)CC4)c3o2)C(C)(C)C1` [Example I-108], the IC50 is over 50 µM in assay [1], 0.0022 µM at PAR2 (HT-29 cells) [2], 0.0018 µM on PAR2 (HT-29 cells) [3] and over 50 µM in assay [4].
Regarding `C[C@H]1CN(C(=O)c2cc3nc(-c4ccc(F)cc4)cc(C4(C)CC4)c3o2)CCN1C(=O)C(C)(C)O` [Example I-109], the half-maximal inhibitory concentration (IC50) in assay [1] was 11 µM; on PAR2 (HT-29 cells) [2], 2.3 µM; on PAR2 (HT-29 cells) [3] it was 3.4 µM; in assay [4], 12 µM.
Taken in the same sequence, the figures for `CC[C@@H](O)C(=O)N1CCN(C(=O)c2cc3nc(-c4ccc(F)cc4)cc(C4(C)CC4)c3o2)C[C@@H]1C` [Example I-110] were 14 µM, 0.04 µM, 0.064 µM and 18 µM.
For `C[C@H]1CN(C(=O)c2cc3nc(-c4ccc(F)cc4)cc(C4(C)CC4)c3o2)CCN1C(=O)C(O)C1CC1` (some centres unmarked) [Example I-111], the IC50 turned out to be 12 µM in assay [1], 0.0565 µM at PAR2 (HT-29 cells) [2], 0.041 µM at PAR2 (HT-29 cells) [3] and 19 µM in assay [4].
As for `CC(C)[C@@H](O)C(=O)N1CCN(C(=O)c2cc3nc(-c4ccc(F)cc4)cc(C4(C)CC4)c3o2)C[C@@H]1C` [Example I-112], the concentration for half-maximal inhibition (IC50) in assay [1] was determined as 11 µM; at PAR2 (HT-29 cells) [2] it was 0.013 µM; at PAR2 (HT-29 cells) [3], 0.027 µM; in assay [4], 13 µM.
With `CC(C)C[C@@H](O)C(=O)N1CCN(C(=O)c2cc3nc(-c4ccc(F)cc4)cc(C4(C)CC4)c3o2)C[C@@H]1C` [Example I-113], the 50% inhibitory concentration (IC50) in assay [1] amounted to 12 µM; on PAR2 (HT-29 cells) [2], 0.011 µM; on PAR2 (HT-29 cells) [3], 0.002 µM; in assay [4] it was 17 µM.
Taken in the same sequence, the figures for `C[C@H]1CN(C(=O)c2cc3nc(-c4ccc(F)cc4)cc(C4(C)CC4)c3o2)CCN1C(=O)C(O)c1ccc(F)cc1` (some centres unmarked) [Example I-114] were 30 µM, 0.0022 µM, 0.0027 µM and 27 µM.
Take `C[C@H]1CN(C(=O)c2cc3nc(-c4ccc(F)cc4)cc(C4(C)CC4)c3o2)CCN1C(=O)C1CCC1` [Example I-115]: the inhibition at 50 µM in assay [1] was found to be 66%. Besides, the 50% inhibitory concentration (IC50) at PAR2 (HT-29 cells) [2] is 0.046 µM; at PAR2 (HT-29 cells) [3] it was 0.092 µM; in assay [4], over 50 µM.
For `C[C@H]1CN(C(=O)c2cc3nc(-c4ccc(F)cc4)cc(C4(C)CC4)c3o2)CCN1C(=O)C1CC1` [Example I-116], the IC50 amounted to 6.9 µM in assay [1], 0.35 µM on PAR2 (HT-29 cells) [2], 0.99 µM at PAR2 (HT-29 cells) [3] and 13 µM in assay [4].
Take `C[C@H]1CN(C(=O)c2cc3nc(-c4ccc(F)cc4)cc(C4(C)CC4)c3o2)CCN1C(=O)C1(O)CC1` [Example I-117]: the IC50 in assay [1] amounted to 7.7 µM; on PAR2 (HT-29 cells) [2] it was 1.1 µM; on PAR2 (HT-29 cells) [3], 2.3 µM; in assay [4], 12 µM.
Take `C[C@H]1CN(C(=O)c2cc3nc(-c4ccc(F)cc4)cc(C4(C)CC4)c3o2)CCN1C(=O)C1(C)CC1` [Example I-118]: the IC50 in assay [1] came to 6.1 µM; on PAR2 (HT-29 cells) [2] it was 0.6 µM; at PAR2 (HT-29 cells) [3], 0.78 µM; in assay [4], 9.8 µM.
As for `C[C@H]1CN(C(=O)c2cc3nc(-c4ccc(F)cc4)cc(C4(C)CC4)c3o2)CCN1C(=O)C1(C#N)CC1` [Example I-119], the IC50 is 1.6 µM in assay [1], 0.62 µM on PAR2 (HT-29 cells) [2], 0.56 µM on PAR2 (HT-29 cells) [3] and 1.4 µM in assay [4].
`C[C@H]1CN(C(=O)c2cc3nc(-c4ccc(F)cc4)cc(C4(C)CC4)c3o2)CCN1C(=O)C1CCOCC1` [Example I-120]: the IC50 in assay [1] is 13 µM; on PAR2 (HT-29 cells) [2], 0.36 µM; at PAR2 (HT-29 cells) [3], 1.3 µM; in assay [4], 13 µM.
